Strand notation (5' to 3'): a small letter for the sugar, then the base; units joined by * are phosphorothioate-linked, units joined directly phosphodiester-linked; [ ] holds rarer units or linkages, { } end groups; capitals alone tell only the bases. k = constrained ethyl (cEt); [5mC] = 5-methylcytosine; d = 2'-deoxy (DNA)
test system: human SMAD7 mRNA; experiment: Antisense inhibition of human SMAD7 mRNA expression in Hep3B cells by 3-10-3 cEt gapmers, 10,000 nM, electroporation (Example 2); type: cell-based; conditions: Hep3B cells, 10,000 nM antisense oligonucleotide, electroporation, approximately 24 hours, RT-PCR primer probe set RTS5062, relative to untreated control cells
Outline: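 Hep3B cells (20,000 per well) were electroporated with 10,000 nM 16-mer 3-10-3 cEt gapmer (phosphorothioate, 5-methylcytosine). After about 24 h, SMAD7 mRNA was quantified by qRT-PCR with primer probe set RTS5062, normalised to RIBOGREEN total RNA, and expressed as percent inhibition versus untreated cells.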

Substance	% Inhibition
800049 (antisense kA*kA*k[5mC]*dA*dA*dA*d[5mC]*d[5mC]*dT*dG*dG*d[5mC]*d[5mC]*kT*kG*kG) [compound 800049]	7%
798874 (kG*k[5mC]*kA*dG*dG*d[5mC]*dT*dG*dT*dA*d[5mC]*dG*d[5mC]*k[5mC]*kT*kT; antisense) [compound 798874]	27%
798838 (k[5mC]*k[5mC]*kG*dA*dA*dT*dT*dG*dA*dG*d[5mC]*dT*dG*kT*k[5mC]*k[5mC]; antisense) [compound 798838]	58%
790533 (kG*kG*k[5mC]*dT*dA*d[5mC]*d[5mC]*dG*dG*d[5mC]*dT*dG*dT*kT*kG*kA; antisense) [compound 790533]	16%
800074 (antisense kG*kG*kG*d[5mC]*dA*dT*dT*d[5mC]*dT*dG*dA*d[5mC]*dT*k[5mC]*k[5mC]*kT) [compound 800074]	33%
800033 (k[5mC]*kA*k[5mC]*dT*dA*d[5mC]*dA*dG*dA*dG*dA*dT*dT*k[5mC]*k[5mC]*k[5mC]; antisense) [compound 800033]	52%
798912 (kT*k[5mC]*k[5mC]*dG*d[5mC]*dA*d[5mC]*dG*d[5mC]*dG*dG*d[5mC]*dT*kA*k[5mC]*k[5mC]; antisense) [compound 798912]	22%
800036 (kG*kT*kT*dA*dG*dG*dA*d[5mC]*dA*dG*d[5mC]*dT*d[5mC]*k[5mC]*kA*kG; antisense) [compound 800036]	38%
799958 (antisense kG*kT*kG*dG*dA*dG*dA*dG*dT*dG*d[5mC]*dT*dG*k[5mC]*kA*k[5mC]) [compound 799958]	23%

same assay, conditions: Hep3B cells, electroporation with 10,000 nM antisense oligonucleotide, approximately 24 hours, RTS5062, percent inhibition of SMAD7 mRNA relative to untreated control cells

Substance	% Inhibition
799748 (antisense kG*k[5mC]*kT*dG*dA*dA*dA*dA*dA*dG*dT*d[5mC]*dA*kT*kG*kA) [compound 799748]	51%
799829 (antisense kG*kA*kG*dT*dT*dT*dG*d[5mC]*dG*dA*dG*d[5mC]*d[5mC]*kA*kA*kG) [compound 799829]	75%
799710 (antisense kG*kT*k[5mC]*dA*dA*dA*d[5mC]*dT*dT*dG*dT*dG*dG*kT*kA*kA) [compound 799710]	48%
799702 (antisense k[5mC]*kA*kT*d[5mC]*dA*d[5mC]*d[5mC]*dA*d[5mC]*dT*d[5mC]*dT*dA*k[5mC]*kA*kG) [compound 799702]	43%
799275 (antisense k[5mC]*kA*kG*dT*dT*dA*dA*dT*d[5mC]*dA*dT*dT*dA*k[5mC]*kT*k[5mC]) [compound 799275]	0%
799704 (antisense kA*k[5mC]*k[5mC]*dA*dA*dT*dG*dG*d[5mC]*dA*dT*dT*dG*kA*kA*kT) [compound 799704]	12%

same assay, conditions: Hep3B cells, electroporation with 10,000 nM antisense oligonucleotide, approximately 24 hours, SMAD7 mRNA by RT-PCR (RTS5062), relative to untreated control cells

Substance	% Inhibition
798695 (antisense kT*kG*k[5mC]*dG*d[5mC]*d[5mC]*d[5mC]*dT*d[5mC]*d[5mC]*dT*d[5mC]*d[5mC]*kT*k[5mC]*kG) [compound 798695]	35%
798698 (antisense kA*kG*k[5mC]*dT*d[5mC]*dG*d[5mC]*d[5mC]*dT*d[5mC]*d[5mC]*dT*d[5mC]*k[5mC]*kT*k[5mC]) [compound 798698]	57%
800106 (antisense k[5mC]*kA*kG*dA*dG*dA*dG*dG*dG*dT*dT*dA*dG*kT*kG*kG) [compound 800106]	12%
830083 (kA*kT*kG*dG*dT*dG*dT*dA*dT*dA*d[5mC]*d[5mC]*d[5mC]*kT*kG*k[5mC]; antisense) [compound 830083]	54%
799336 (kA*k[5mC]*kT*dG*d[5mC]*dA*dG*dG*dA*dG*d[5mC]*dA*dG*kT*kG*k[5mC]; antisense) [compound 799336]	25%
799988 (kG*k[5mC]*kG*d[5mC]*dA*dA*dA*d[5mC]*dA*dT*d[5mC]*dA*d[5mC]*k[5mC]*kA*k[5mC]; antisense) [compound 799988]	32%
798867 (kT*kT*kG*dT*dG*dT*dA*d[5mC]*d[5mC]*dA*dA*d[5mC]*dA*kG*k[5mC]*kG; antisense) [compound 798867]	29%
830139 (antisense kT*kG*kG*dA*dG*dT*dT*dG*d[5mC]*dA*dT*dG*d[5mC]*k[5mC]*kT*kT) [compound 830139]	45%
799353 (kT*k[5mC]*kT*dT*dT*dT*dA*dG*d[5mC]*d[5mC]*d[5mC]*dA*dA*k[5mC]*kT*kG; antisense) [compound 799353]	45%

same assay, conditions: Hep3B cells, electroporation with 10,000 nM antisense oligonucleotide, approximately 24 hours, primer probe set RTS5062, relative to untreated control cells

Substance	% inhibition of SMAD7 mRNA expression	% Inhibition
798786 (kA*k[5mC]*kT*d[5mC]*dT*dA*dG*dT*dT*d[5mC]*dG*d[5mC]*dA*kG*kA*kG; antisense) [compound 798786]	11%	–
798688 (antisense kG*kT*k[5mC]*d[5mC]*dT*dG*dA*dA*d[5mC]*dA*dT*dG*d[5mC]*kG*kG*kG) [compound 798688]	68%	–
772692 (kA*kA*kA*dG*d[5mC]*dA*d[5mC]*dT*dA*d[5mC]*dA*dA*dT*kG*k[5mC]*kT; antisense) [compound 772692]	–	19%
799398 (antisense k[5mC]*kT*kT*dG*dG*dA*dA*dA*dA*dT*dG*dA*dA*k[5mC]*kT*kT) [compound 799398]	48%	–
798959 (antisense k[5mC]*k[5mC]*k[5mC]*dA*dA*d[5mC]*dA*dA*dT*dT*d[5mC]*dT*dT*kT*kT*k[5mC]) [compound 798959]	–	36%
799497 (antisense kA*kA*kG*dA*dA*d[5mC]*dT*d[5mC]*dT*d[5mC]*d[5mC]*dT*dA*kA*kG*k[5mC]) [compound 799497]	0%	–
799196 (antisense kG*k[5mC]*kA*d[5mC]*dT*dA*d[5mC]*dA*dA*dT*dG*d[5mC]*dT*kA*kA*kA) [compound 799196]	–	47%
798944 (antisense kA*kA*kA*d[5mC]*dG*dA*dG*dG*dA*d[5mC]*dG*dA*dG*kA*kA*kG) [compound 798944]	3%	–
798977 (antisense kT*kG*k[5mC]*dT*dT*dG*dG*dA*dT*dT*dT*d[5mC]*dT*kG*k[5mC]*kT) [compound 798977]	–	43%

same assay, conditions: Hep3B cells, electroporation, 10,000 nM antisense oligonucleotide, approximately 24 hours, RTS5062, relative to untreated control cells

Substance	% inhibition of SMAD7 mRNA expression
799617 (k[5mC]*kA*kA*d[5mC]*d[5mC]*dT*dG*d[5mC]*dA*dG*d[5mC]*d[5mC]*dA*kG*k[5mC]*kA; antisense) [compound 799617]	50%
799515 (antisense k[5mC]*k[5mC]*k[5mC]*d[5mC]*dA*dG*dA*d[5mC]*d[5mC]*dT*dG*d[5mC]*dT*kA*kA*kG) [compound 799515]	38%
799517 (antisense k[5mC]*kT*kT*dA*dA*dG*dT*dA*dG*dA*dG*d[5mC]*dA*kA*kA*kG) [compound 799517]	0%
799288 (antisense kT*kA*kA*dT*dG*dG*dT*d[5mC]*dT*dG*d[5mC]*dT*d[5mC]*kA*kG*kG) [compound 799288]	23%
799271 (antisense k[5mC]*kT*k[5mC]*dG*dA*dG*dT*d[5mC]*dA*dG*dG*d[5mC]*dT*k[5mC]*kA*kA) [compound 799271]	60%

same assay, conditions: SMAD7 mRNA, Hep3B cells, 10,000 nM antisense oligonucleotide, electroporation, approximately 24 hours, primer probe set RTS5062, relative to untreated control cells

Substance	% Inhibition
800858 (antisense kA*kG*k[5mC]*d[5mC]*d[5mC]*dA*dA*d[5mC]*dT*dG*dT*dT*dT*kG*kT*k[5mC]) [compound 800858]	40%
772592 (k[5mC]*kA*k[5mC]*d[5mC]*dA*dG*dT*dG*dT*dG*dA*d[5mC]*d[5mC]*kG*kA*kT; antisense) [compound 772592]	24%
829773 (antisense kG*kT*kA*dG*dG*dA*d[5mC]*dG*dA*dG*dG*dG*d[5mC]*kG*kG*k[5mC]) [compound 829773]	50%
790647 (k[5mC]*kG*k[5mC]*dG*dA*dG*dG*d[5mC]*dG*dG*dT*dG*dA*kT*kT*kG; antisense) [compound 790647]	24%
790484 (kG*kA*kA*d[5mC]*dA*d[5mC]*dT*dT*dT*dG*d[5mC]*dA*d[5mC]*kA*kG*k[5mC]; antisense) [compound 790484]	62%
829745 (antisense k[5mC]*kG*kG*dG*d[5mC]*dG*d[5mC]*dA*d[5mC]*dG*dG*d[5mC]*dT*k[5mC]*k[5mC]*kT) [compound 829745]	19%
829785 (antisense kA*kT*kG*d[5mC]*d[5mC]*dT*dG*dA*dG*dA*dT*d[5mC]*d[5mC]*kG*kG*k[5mC]) [compound 829785]	27%
829721 (antisense kT*kG*k[5mC]*dG*d[5mC]*d[5mC]*dA*dG*dT*d[5mC]*dT*d[5mC]*d[5mC]*k[5mC]*kG*kG) [compound 829721]	33%
829760 (antisense k[5mC]*k[5mC]*kG*d[5mC]*d[5mC]*dT*dT*dG*d[5mC]*d[5mC]*d[5mC]*dA*dG*kG*k[5mC]*kA) [compound 829760]	3%

same assay, conditions: SMAD7 mRNA, Hep3B cells, electroporation with 10,000 nM antisense oligonucleotide, approximately 24 hours, primer probe set RTS5062, relative to untreated control cells

Substance	% Inhibition
829915 (antisense kG*kG*kT*dA*d[5mC]*d[5mC]*dT*dT*dG*dG*dG*dT*dT*kA*kT*kG) [compound 829915]	22%
829967 (k[5mC]*k[5mC]*k[5mC]*d[5mC]*d[5mC]*dA*dG*dG*dG*dA*dA*dT*dG*k[5mC]*k[5mC]*k[5mC]; antisense) [compound 829967]	0%
